Data as given in US8039668B2, “Naphthalene-based inhibitors of anti-apoptotic proteins” (Burnham Institute for Medical Research, priority 2008, dated 2011).
Like-named read-outs stand apart in the source and are kept apart here.

Tests used:
[1] = target: T1, BCL-XL (Homo sapiens, UniProt Q07817); experiment: 1D 1H-NMR binding assay; settings: for 1D ^1H-NMR Binding Assay (BCL-XL): Table 9; for 1D ^1H-NMR Binding Assay (BCL-XL): key: +++: Very Active; ++: Active; +: Mild; −: Weak
Protocol: By observing the aliphatic region of the spectra, binding could be readily detected due to chemical shift changes in active site methyl groups of Ile, Leu, Thr, Val or Ala (region between −0.8 and 0.3 ppm). All experiments were performed with a 600 MHz spectrometer Bruker Avance 600 equipped with four rf channels and z-axis pulse-field gradients.
Target sequence in this assay (Q07817 whole entry): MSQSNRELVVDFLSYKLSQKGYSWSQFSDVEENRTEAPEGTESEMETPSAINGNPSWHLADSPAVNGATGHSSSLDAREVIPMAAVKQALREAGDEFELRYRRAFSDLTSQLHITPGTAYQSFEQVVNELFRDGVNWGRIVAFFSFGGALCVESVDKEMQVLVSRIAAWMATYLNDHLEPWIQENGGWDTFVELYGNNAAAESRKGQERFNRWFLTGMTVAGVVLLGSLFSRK

[2] = test system: H1299 cell line; experiment: Cell viability, ATP-LITE assay; assay type: cell-based, human; settings: Homo sapiens
Protocol: (§1) The activity of the compounds against human cancer cell lines (PC3ML, H460, H1299, RS11846) were assessed by using the ATP-LITE assay (PerkinElmer). All cells were seeded in either F12 or RPMI1640 medium with 5 mM L-glutamine supplemented with 5% fetal bovine serum (Mediatech Inc.), penicillin and streptomycin (Omega). For maintenance, cells were cultured in 5% FBS. Cells plated into 96 well plates at varying initial densities depending on doubling time. H460 and H1299 plated at 2000 cells/well, A549 and PC3 at 3000 cells/well, and RS118456S at 10,000 cells/well. Compounds were diluted to final concentrations with 0.1% DMSO. Prior to dispensing compounds onto cells, fresh 5% media was placed into wells. Administration of compounds occurred 24 hours after seeding into the fresh media. Cell viability was evaluated using ATP-LITE reagent (PerkinElmer) after 72 hours of treatment. Data were normalized to the DMSO control-treated cells using Prism version 5.01 (Graphpad Software).

[3] = test system: PC3ML cells; experiment: Cell viability, ATP-LITE assay; assay type: cell-based, human; settings: Homo sapiens, PC3-ML
Protocol: as §1

[4] = test system: human lymphoma RS11846 cell line; experiment: Apoptosis, Annexin V-FITC and propidium iodide assay; assay type: cell-based; settings: for EC50: Homo sapiens
[5] = target: T1, BCL-XL; experiment: Competitive fluorescence polarization assay (FPA), Bak BH3 peptide; assay type: binding; design: 100 nM GST-BCL-XL ΔTM protein; settings: Table 9
Protocol: For competitive binding assays, 100 nM GST-BCL-XL ΔTM protein was preincubated with the tested compound at varying concentrations in 47.5 μL PBS (pH=7.4) in 96-well black plates at room temperature for 10 min, then 2.5 μL of 100 nM FITC-labeled Bak BH3 peptide was added to produce a final volume of 50 μL. The wild-type and mutant Bak BH3 peptides were included in each assay plate as positive and negative controls, respectively. […] IC50 was determined by fitting the experimental data to a sigmoidal dose-response nonlinear regression model (SigmaPlot 10.0.1, Systat Software, Inc., San Jose, Calif., USA). Data reported are mean of three independent experiments±standard error (SE). […] Fluorescence polarization was measured after 10 min.
Target sequence in this assay (Q07817 1-209 limits assumed): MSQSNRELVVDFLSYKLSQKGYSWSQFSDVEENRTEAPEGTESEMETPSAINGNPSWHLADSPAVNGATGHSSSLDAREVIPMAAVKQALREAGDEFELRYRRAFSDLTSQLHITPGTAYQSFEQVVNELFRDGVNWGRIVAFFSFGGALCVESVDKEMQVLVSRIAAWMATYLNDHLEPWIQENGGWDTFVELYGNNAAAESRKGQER

[6] = test system: H460 human lung cell line; experiment: Cell viability, ATP-LITE assay; assay type: cell-based; settings: Homo sapiens
Protocol: as §1

[7] = test system: RS11846 cell line; experiment: Cell viability, ATP-LITE assay; assay type: cell-based; settings: Homo sapiens, read-out: RS11846 EC50 (ATP-LITE assay)
Protocol: as §1

[8] = test system: B6Bcl-2 transgenic mice
Protocol: Transgenic mice expressing BCL-2 have been described as the B6 line. The BCL-2 transgene res a minigene version of a t(14;18) translocation in which the human BCL-2 gene is fused with the immunoglobulin heavy-chain (IgH) locus and associated IgH enhancer. The transgene was propagated on the Balb/c background.
After 24 hours, B6BCL2 mice were sacrificed by intraperitoneal injection of lethal dose of Avertin. Spleen was removed and weighed. […] Spleen tissue was fixed in z-FIX for 3 days and rinsed in PBS, and saved for histological analysis of spleen (H&E staining and TUNEL assay).

[9] = NCI-H1299, Table 9, read-out: H1299 EC50
[10] = Table 9, read-out: RS11846 EC50 (Annexin V- and propidium iodide assay)
[11] = NCI-H460, Table 9, read-out: H460 EC50
[12] = NCI-H1299, read-out: H1299 EC50
[13] = read-out: RS11846 EC50 (Annexin V- and propidium iodide assay), Table 9

SMILES	1D ^1H-NMR Binding Assay (BCL-XL) [1]	EC50 [2, 9] [µM]	EC50 ([3]; Table 9, read-out: PC3ML EC50) [nM]	EC50 [4, 10] [µM]	IC50 ([5]; read-out: FPA IC50 (BCL-XL)) [nM]	EC50 [6, 11] [nM]	EC50 ([7]; Table 9) [nM]	other results
Cc1cc2c(C(=O)c3ccccc3)c(O)c(O)cc2c(O)c1-c1c(C)cc2c(C(=O)c3ccccc3)c(O)c(O)cc2c1O [Compound VII, (1,1′,6,6′,7,7′-hexahydroxy-3,3′-dimethyl-2,2′-binaphthyl-5,5′-diyl)bis(phenylmethanone)]	+	4.2	3600	18.3	2900			
Cc1cc2c(C(=O)c3ccc(C(F)(F)F)cc3)c(O)c(O)cc2c(O)c1-c1c(C)cc2c(C(=O)c3ccc(C(F)(F)F)cc3)c(O)c(O)cc2c1O [Compound XI, (1,1′,6,6′,7,7′-hexahydroxy-3,3′-dimethyl-2,2′-binaphthyl-5,5′-diyl)bis((4-(trifluoromethyl)phenyl)methanone)]	+	2	2900	3 to 5.5	250	2200	2500	
CCCCC(CC)CC(=O)c1c(O)c(O)cc2c(O)c(-c3c(C)cc4c(C(=O)CC(CC)CCCC)c(O)c(O)cc4c3O)c(C)cc12 (stereo not drawn) [Compound V, 1,1′-(1,1′,6,6′,7,7′-hexahydroxy-3,3′-dimethyl-2,2′-binaphthyl-5,5′-diyl)bis(3-ethylheptan-1-one)]	+	3	3000	6.6	1290	1500	2800	
Cc1cc2c(C(=O)c3ccc(C(C)(C)C)cc3)c(O)c(O)cc2c(O)c1-c1c(C)cc2c(C(=O)c3ccc(C(C)(C)C)cc3)c(O)c(O)cc2c1O [Compound X, (1,1′,6,6′,7,7′-hexahydroxy-3,3′-dimethyl-2,2′-binaphthyl-5,5′-diyl)bis((4-tert-butylphenyl)methanone)]	−	4.8	2800	13.4		3600	2300	
Cc1cc2c(C(=O)CCc3ccc(F)cc3)c(O)c(O)cc2c(O)c1-c1c(C)cc2c(C(=O)CCc3ccc(F)cc3)c(O)c(O)cc2c1O [Compound XVI, 1,1′-(1,1′,6,6′,7,7′-hexahydroxy-3,3′-dimethyl-2,2′-binaphthyl-5,5′-diyl)bis(3-(4-fluorophenyl)propan-1-one)]	++	2.2	2800	3.1	140	1500	2300	
Cc1cc2c(C(=O)c3ccc(-c4ccccc4)cc3)c(O)c(O)cc2c(O)c1-c1c(C)cc2c(C(=O)c3ccc(-c4ccccc4)cc3)c(O)c(O)cc2c1O [Compound IX, (1,1′,6,6′,7,7′-hexahydroxy-3,3′-dimethyl-2,2′-binaphthyl-5,5′-diyl)bis(biphenyl-4-ylmethanone)]	+							EC50 [2, 12]: 9.6 µM; EC50 ([3]; read-out: PC3ML EC50, Table 9): 7700 nM; EC50 ([6]; NCI-H460, read-out: H460 EC50): 8200 nM; EC50 [7]: 2800 nM; EC50 [4, 13]: 25.9 µM
Cc1cc2c(C(=O)CC(C)C)c(O)c(O)cc2c(O)c1-c1c(C)cc2c(C(=O)CC(C)C)c(O)c(O)cc2c1O [Compound IV, 1,1′-(1,1′,6,6′,7,7′-hexahydroxy-3,3′-dimethyl-2,2′-binaphthyl-5,5′-diyl)bis(3-methylbutan-1-one)]	+	3.6	7500	13.7	1300	1100	10000	
Cc1cc2cc(O)c(O)cc2c(O)c1-c1c(C)cc2cc(O)c(O)cc2c1O [Compound II, 3,3′-dimethyl-2,2′-binaphthyl-1,1′,6,6′ 7,7′-hexaol]	+	13.4	12600	24.7		10100	10000	
Cc1cc2c(C(=O)CC3CCCCC3)c(O)c(O)cc2c(O)c1-c1c(C)cc2c(C(=O)CC3CCCCC3)c(O)c(O)cc2c1O [Compound XV, 1,1′-(1,1′,6,6′,7,7′-hexahydroxy-3,3′-dimethyl-2,2′-binaphthyl-5,5′-diyl)bis(2-cyclohexylethanone)]	+	2.1	1900	5.2		1800	2000	
Cc1cc2c(C(=O)Cc3ccc(OC(F)(F)F)cc3)c(O)c(O)cc2c(O)c1-c1c(C)cc2c(C(=O)Cc3ccc(OC(F)(F)F)cc3)c(O)c(O)cc2c1O [Compound XIV, 1,1′-(1,1′,6,6′,7,7′-hexahydroxy-3,3′-dimethyl-2,2′-binaphthyl-5,5′-diyl)bis(2-(4-(trifluoromethoxy)phenyl)ethanone)]	++							EC50 [2, 12]: 3.9 µM; EC50 ([3]; read-out: PC3ML EC50, Table 9): 1900 nM; EC50 ([6]; NCI-H460, read-out: H460 EC50): 3300 nM; EC50 [7]: 1800 nM; EC50 [4, 13]: 6.2 µM; IC50 ([5]; FPA IC50 (BCL-XL)): 1300 nM
Cc1cc2cc(O)c(O)cc2c(O)c1-c1c(C)cc2cc(O)c(O)cc2c1O [Compound 13, 3,3′-dimethyl-2,2′-binaphthyl-1,1′,6,6′,7,7′-hexaol]								1D-^1H NMR ([1]; Table 4, BCL-XL 25 μM, compound 200 μM): −; EC50 ([2]; NCI-H1299, ATP-LITE assay, read-out: EC50 H1299): 13.4 µM; EC50 ([3]; ATP-LITE assay, read-out: EC50 PC3ML): > 10000 nM; EC50 ([6]; NCI-H460, ATP-LITE assay, read-out: EC50 H460): > 10000 nM; EC50 ([4]; Annexin V-FITC and propidium iodide assay, read-out: EC50 RS11846): 24.5 µM; induction of apoptosis of the RS11846 cell line ([4]; in words): weak or no apoptosis; Tox ([8]; Bcl-2 transgenic mouse, single ip injection 72 μmol/kg): 0; activity in transgenic mice model ([8]; single ip 72 μmol/kg): no activity
Cc1cc2c(C(=O)C(C)C)c(O)c(O)cc2c(O)c1-c1c(C)cc2c(C(=O)C(C)C)c(O)c(O)cc2c1O [Compound III, 1,1′-(1,1′,6,6′,7,7′-hexahydroxy-3,3′-dimethyl-2,2′-binaphthyl-5,5′-diyl)bis(2-methylpropan-1-one)]	++							EC50 [2, 12]: 4.8 µM; EC50 ([3]; read-out: PC3ML EC50, Table 9): 3900 nM; EC50 ([6]; NCI-H460, read-out: H460 EC50): 1500 nM; EC50 [7]: 15000 nM; EC50 [4, 13]: 14.7 µM
